≈ marks a conversion by molar mass, not a printed value. Values belong to the compound of their own block, whether it stands above or below them.
Assays:
[1] = Solubility of SOMCL-9112 API and solid dispersions in water and buffers (37° C., shaking); type: physicochemical; details: for solubility at 8 h: 37 °C, thermodynamic from solid
Experimental: The SOMCL-9112 solid dispersion prepared in this Example and the SOMCL-9112 API powder were dissolved in water, simulated gastric fluid (pH 1.2), phosphate buffer (pH 4.5) and simulated intestinal fluid (pH6.8) to measure the solubility of SOMCL-9112 (37° C., shaking at 100 rpm for 8 h). The solid dispersion was sampled at 4 h and 8 h.
The SOMCL-9112 solid dispersion prepared in this example was dissolved in water, simulated gastric fluid (pH 1.2), phosphate buffer (pH 4.5) and simulated intestinal fluid (pH6.8) to measure the solubility of SOMCL-9112 (37° C., shaking at 100 rpm for 8 h).
The SOMCL-9112 solid dispersion prepared in this example was dissolved in a simulated intestinal fluid (pH6.8) to measure the solubility of SOMCL-9112 (37° C., shaking at 100 rpm for 8 h).

[2] = Equilibrium solubility test (24 h, HPLC); type: physicochemical; details: thermodynamic from solid; for solubility thermodynamic at 24 h: 37° C., 100 rpm
Experimental: Equilibrium Solubility Test: The solubility of SOMCL9112 in a series of solvents was investigated. The main solvents included water, pH 1.2 simulated gastric fluid, pH 4.5 phosphate buffer, and pH 6.8 simulated intestinal fluid. 0.5 g of SOMCL-9112 API was taken and added to 100 ml of each of the above solvents. The mixture was shaken at 37° C. shaker at 100 rpm for 24 h. The supernatant was centrifuged at 8000 rpm for 15 min and the concentration of SOMCL-9112 was determined by HPLC.

[3] = molecular target: poly-ADP-ribose polymerase (PARP) (Homo sapiens, UniProt P09874); details: in words, no data shown; cited from earlier work
Chain of poly-ADP-ribose polymerase (PARP) (P09874 whole entry): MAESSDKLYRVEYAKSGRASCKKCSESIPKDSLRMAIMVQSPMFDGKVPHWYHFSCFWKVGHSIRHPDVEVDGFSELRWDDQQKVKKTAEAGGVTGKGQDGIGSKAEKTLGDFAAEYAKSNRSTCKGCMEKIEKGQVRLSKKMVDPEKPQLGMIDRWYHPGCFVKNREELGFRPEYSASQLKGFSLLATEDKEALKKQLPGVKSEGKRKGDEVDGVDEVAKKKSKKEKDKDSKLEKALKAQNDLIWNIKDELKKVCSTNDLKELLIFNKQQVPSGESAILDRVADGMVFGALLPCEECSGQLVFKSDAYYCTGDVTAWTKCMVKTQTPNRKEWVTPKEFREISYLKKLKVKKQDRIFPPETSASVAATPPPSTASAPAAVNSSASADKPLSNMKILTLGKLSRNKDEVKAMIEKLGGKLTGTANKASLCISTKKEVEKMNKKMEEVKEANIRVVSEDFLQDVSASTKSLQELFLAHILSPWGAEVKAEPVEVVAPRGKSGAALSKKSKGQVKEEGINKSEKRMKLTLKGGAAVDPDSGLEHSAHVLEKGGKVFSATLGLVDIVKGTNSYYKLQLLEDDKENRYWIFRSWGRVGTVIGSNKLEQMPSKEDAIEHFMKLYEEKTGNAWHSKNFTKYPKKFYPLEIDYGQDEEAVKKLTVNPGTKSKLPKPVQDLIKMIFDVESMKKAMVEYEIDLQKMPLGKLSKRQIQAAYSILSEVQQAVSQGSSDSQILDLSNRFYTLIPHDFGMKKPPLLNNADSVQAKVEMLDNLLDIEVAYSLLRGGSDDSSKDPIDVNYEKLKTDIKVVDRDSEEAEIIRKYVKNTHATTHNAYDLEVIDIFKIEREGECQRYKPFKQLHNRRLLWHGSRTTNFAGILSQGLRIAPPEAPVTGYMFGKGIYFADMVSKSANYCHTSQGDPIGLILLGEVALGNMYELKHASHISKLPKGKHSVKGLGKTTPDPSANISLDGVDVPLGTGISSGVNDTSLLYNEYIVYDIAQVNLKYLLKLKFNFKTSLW

P-gp = test: in vitro; details: human
Experimental: (§1) Permeability Test: The permeability of SOMCL-9112 was evaluated using Caco-2 cell model.

in vitro = details: human
Experimental: as §1

Caco-2 cell model = test: in vitro
Experimental: as §1

solubility at 8 h ([1]; pH 1.2, simulated gastric fluid): 10.5 µg/mL (≈ 21.6 µM)
solubility at 8 h ([1]; pH 4.5, aqueous buffer): 18.9 µg/mL (≈ 38.9 µM)
solubility at 8 h ([1]; pH 6.8, fassgf or other biorelevant): 15.4 µg/mL (≈ 31.7 µM)
solubility at 8 h ([1]; water): 15.8 µg/mL (≈ 32.5 µM)
solubility ([1]; fassgf or other biorelevant): ~10 µg/mL (≈ 20.6 µM)
solubility thermodynamic ([2]; 37 °C, aqueous buffer, pH 1.2-6.8 buffer saline solution): < 100 µg/mL
solubility thermodynamic at 24 h ([2]; aqueous buffer, pH 4.5 phosphate buffer): 18.6 µg/mL (≈ 38.2 µM)
solubility thermodynamic at 24 h ([2]; fassgf or other biorelevant, pH 6.8 simulated intestinal fluid): 16.2 µg/mL (≈ 33.3 µM)
solubility thermodynamic at 24 h ([2]; pH 1.2 simulated gastric fluid): 10.3 µg/mL (≈ 21.2 µM)
solubility thermodynamic at 24 h ([2]; water): 14.8 µg/mL (≈ 30.4 µM)
efflux ratio at 2 μM (P-gp; Caco-2): 22.6
efflux ratio at 10 μM (P-gp; Caco-2): 61.9
efflux ratio at 50 μM (P-gp; Caco-2): 54.5
Papp A→B at 2 μM (in vitro; Caco-2): 0.72 ×10⁻⁶ cm/s
Papp A→B at 10 μM (in vitro; Caco-2): 0.26 ± 0.03 ×10⁻⁶ cm/s
Papp A→B at 50 μM (in vitro; Caco-2): 0.34 ± 0.06 ×10⁻⁶ cm/s
Papp B→A at 2 μM (in vitro; Caco-2): 16.3 ± 0.34 ×10⁻⁶ cm/s
Papp B→A at 10 μM (in vitro; Caco-2): 16.1 ± 1.05 ×10⁻⁶ cm/s
Papp B→A at 50 μM (in vitro; Caco-2): 18.7 ± 0.28 ×10⁻⁶ cm/s
Permeability characteristic (Caco-2 cell model): low permeability characteristic
SMILES: CC1CN(C(=O)c2cc(Cc3n[nH]c(=O)c4ccccc34)ccc2F)Cc2nnc(C(F)(F)F)n21 (stereo not drawn) [SOMCL-9112, 4-(4-fluoro-3-(5-methyl-3-(trifluoromethyl)-5,6,7,8-4H-[1,2,4]triazolo[4,3-a]piperazine-7-carbonyl)benzyl)phthalazin-1(2H)-one]
Inhibitory effect on PARP [3]: significant inhibitory effect

efflux ratio (P-gp): 0.72
Papp A→B (in vitro): 10.5 ± 1.97 ×10⁻⁶ cm/s
Papp B→A (in vitro): 7.57 ± 0.6 ×10⁻⁶ cm/s
SMILES: CC(C)NCC(O)COc1cccc2ccccc12 (stereo not drawn) [Propranolol, reference compound]

efflux ratio (P-gp): 109
Papp A→B (in vitro): 0.09 ± 0.01 ×10⁻⁶ cm/s
Papp B→A (in vitro): 9.88 ± 1.41 ×10⁻⁶ cm/s
SMILES: C[C@H]1O[C@@H](O[C@H]2[C@@H](O)C[C@H](O[C@H]3[C@@H](O)C[C@H](O[C@H]4CC[C@@]5(C)[C@H](CC[C@@H]6[C@@H]5C[C@@H](O)[C@]5(C)[C@@H](C7=CC(=O)OC7)CC[C@]65O)C4)O[C@@H]3C)O[C@@H]2C)C[C@H](O)[C@@H]1O [Digoxin, reference compound]

Reference: patent publication US11191761B2, “SOMCL-9112 solid dispersion and preparation method thereof and SOMCL-9112 solid preparation containing SOMCL-9112 solid dispersion” (SHANGHAI INSTITUTE OF MATERIA MEDICA, CHINESE ACADEMY OF …, priority 2015, dated 2021)
